Results published in ChEMBL document CHEMBL2390930, “Design, synthesis and evaluation of 1,2-benzisothiazol-3-one derivatives as potent caspase-3 inhibitors” (Bioorg Med Chem, 2013).

Biological target: T1, Caspase-3 (Homo sapiens, UniProt P42574)
T1 sequence (P42574 whole entry): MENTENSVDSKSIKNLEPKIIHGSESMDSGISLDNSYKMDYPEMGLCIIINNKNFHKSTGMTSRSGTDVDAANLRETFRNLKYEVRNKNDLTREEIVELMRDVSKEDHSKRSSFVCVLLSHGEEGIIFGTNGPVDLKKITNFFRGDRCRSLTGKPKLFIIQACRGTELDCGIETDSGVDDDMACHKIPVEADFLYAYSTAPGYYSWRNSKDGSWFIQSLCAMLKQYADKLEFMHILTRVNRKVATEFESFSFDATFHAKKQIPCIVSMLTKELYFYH
Experiment: Inhibition of recombinant human caspase-3 using Ac-LDEVD-AMC as substrate assessed as accumulation of 7-AMC incubated for 10 mins followed by substrate addition measured for 10 mins by fluorimetric analysis

Structure (SMILES)	IC50
Cn1sc2ccccc2c1=O	42400 nM
O=c1c2ccccc2sn1-c1ccccc1	533 nM
O=C(Nc1ccc(I)cc1)n1sc2ccccc2c1=O	> 100000 nM
O=C(NCc1ccccc1)n1sc2ccccc2c1=O	86 nM
Cc1ccc(-n2sc3ccccc3c2=O)cc1	466 nM
